The record followed here is US6936585B2, “Corticotropin releasing factor 2 receptor agonists” (priority 2002, dated 2005).

Assay [1] concerns the target T1, CRF2R (Homo sapiens, UniProt Q13324).
T1 sequence (Q13324 1-411): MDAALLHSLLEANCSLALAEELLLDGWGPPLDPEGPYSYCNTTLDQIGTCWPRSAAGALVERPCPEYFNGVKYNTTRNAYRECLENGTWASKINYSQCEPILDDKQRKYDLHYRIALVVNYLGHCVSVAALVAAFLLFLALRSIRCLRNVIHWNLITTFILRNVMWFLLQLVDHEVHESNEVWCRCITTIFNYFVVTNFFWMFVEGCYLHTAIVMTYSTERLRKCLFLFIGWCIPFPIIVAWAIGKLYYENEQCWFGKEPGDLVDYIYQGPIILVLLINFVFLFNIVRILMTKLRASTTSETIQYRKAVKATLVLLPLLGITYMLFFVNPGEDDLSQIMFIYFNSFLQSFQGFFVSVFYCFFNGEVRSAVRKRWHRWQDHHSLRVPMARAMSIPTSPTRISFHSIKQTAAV
The assay can be described thus: CRF2R agonist activation (EC50 / Emax), called comparative CRF binding. It counts as cell-based. The settings on record: read-out: CRF2R Emax. Put shortly: (§1)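 Cells expressing human CRF1R or CRF2R are exposed to peptide or vehicle control, and receptor activation is read as cAMP induction, measured in cell lysates or via a CRE-linked reporter gene.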

The target in assay [2] is T2, CRF1R (Homo sapiens, UniProt P34998).
T2 sequence (P34998 24-415): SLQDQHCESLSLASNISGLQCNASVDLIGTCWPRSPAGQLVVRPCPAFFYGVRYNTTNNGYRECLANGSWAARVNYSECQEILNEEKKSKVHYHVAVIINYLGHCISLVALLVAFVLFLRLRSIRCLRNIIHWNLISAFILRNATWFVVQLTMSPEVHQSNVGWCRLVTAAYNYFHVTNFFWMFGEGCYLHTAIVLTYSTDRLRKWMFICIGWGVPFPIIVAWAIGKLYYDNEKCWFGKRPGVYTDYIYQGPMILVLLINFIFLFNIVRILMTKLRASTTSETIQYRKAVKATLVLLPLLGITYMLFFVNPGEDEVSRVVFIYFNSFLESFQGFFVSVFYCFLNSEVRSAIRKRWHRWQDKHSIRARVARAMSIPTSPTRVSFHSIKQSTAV
The assay is described as follows: CRF1R agonist activation (EC50 / Emax), called comparative CRF binding. The format is cell-based. The settings on record: read-out: CRF1R Emax. The procedure, abridged:
as §1

Ends that are not written are not given here.

In general, Emax refers to the greatest response seen or fitted, relative to the assay's reference. On to “SQEPPISLDLPTYLLREVLEMTKADQLAQQAHSNRKLLDIA-NH2 [compound 106]”, for which the results for the Emax in assay [1] and in assay [2] were 6.1% and 4.8%, respectively.
On the same counts, the results for “SQEPPISLDLTFGLLREVLEMTKADQLAQQAHSNRKLLDIA-NH2 [compound 88]” are 12.6% and 11.2%.
In the same order, the values of “SQEPPISLDLTFHLLREVLEQARARAAREQATTNARILARV-NH2 [compound 157]” are 60.6% and 91%.
With “SQEPPISLDLTIGLLREVLEMTKADQLAQQAHSNRKLLDIA-NH2 [compound 86]”, the Emax in assay [1] was found to be 8.1%; in assay [2], 4.6%.
In the case of “SQEPPISLDLTIHLLREVLEMTKADQLAQQAHSNRKLLDIA-NH2 [compound 87]”, the results for the Emax in assay [1] and in assay [2] were 14.7% and 5.3%, respectively.
